Format in all cases: functional, cell-based
The subject of one test is LoVo. The test is described as follows: Cytotoxicity against human LoVo cells at 2 ug/ml.
The next test deals with KB. The experiment in a line: Cytotoxicity against human KB cells at 2 ug/ml.
In another test the test system is L1210. The experiment in a line: Cytotoxicity against mouse L1210 cells by agar disk diffusion assay. (In general: Agar diffusion results depend on both activity and mobility in agar.)

The source made the active and inactive calls. The calls are words filed in the database; no cut-off is given here.

For `CC(C)[C@@H]1NC(=O)[C@H]2N=C(O[C@@H]2C)[C@H](C(C)C)NC(=O)[C@H]2N=C(O[C@@H]2C)[C@H](C(C)C)NC(=O)[C@H]2N=C1O[C@@H]2C`, the result with LoVo and in the test with KB was Active. Also, in the test on L1210, the outcome was inactive.
